In patent US20050288502A1, “Substituted heterocyclic compounds and methods of use” (priority 2004, published 2005) one finds IC50 data, which are given here for 18 molecules.

The assay deals with TNF-α. Nature of the assay: Lipopolysaccharide-activated THP1 cell TNF production assay (LPS induced TNF release). The assay is classed as cell-based. The conditions noted are these: Homo sapiens, THP-1; THP1 cells, bacterial LPS, secreted TNF-α after 3 h at 37° C. The protocol:
Lipopolysaccharide-Activated THP1 Cell TNF Production Assay
THP1 cells are resuspended in fresh THP1 media (RPMI 1640, 10% heat-inactivated FBS, 1XPGS, 1XNEAA, plus 30 μM βME) at a concentration of 1E6/mL. One hundred microliters of cells per well are plated in a polystyrene 96-well tissue culture. One microgram per mL of bacterial LPS is prepared in THP1 media and is transferred to the wells. Test compounds are dissolved in 100% DMSO and are serially diluted 3 fold in a polypropylene 96-well microtiter plate (drug plate). HI control and LO control wells contain only DMSO. One microliter of test compound from the drug plate followed by 10 μL of LPS are transferred to the cell plate. The treated cells are induced to synthesize and secrete TNF-α at 37° C. for 3 h. Forty microliters of conditioned media are transferred to a 96-well polypropylene plate containing 110 μL of ECL buffer (50 mM Tris-HCl pH 8.0, 100 mM NaCl, 0.05% Tween 20, 0.05% NaN3 and 1% FBS) supplemented with 0.44 nM MAB610 monoclonal Ab (R&D Systems), 0.34 nM ruthenylated AF210NA polyclonal Ab (R&D Systems) and 44 μg/mL sheep anti-mouse M280 Dynabeads (Dynal). After a 2 h incubation at room temperature with shaking, the reaction is read on the ECL M8 Instrument (IGEN Inc.). A low voltage is applied to the ruthenylated TNF-α immune complexes, which in the presence of TPA (the active component in Origlo), results in a cyclical redox reaction generating light at […]. The amount of secreted TNF-α: in the presence of compound compared with that in the presence of DMSO vehicle alone (HI control) is calculated using the formula:% control (POC)=(cpd−average LO)/(average HI−average LO)*100. Data (consisting of POC and inhibitor concentration in μM) is fitted to a 4-parameter equation (y=A+((B−A)/(1+((x/C)ˆD))), where A is the minimum y (POC) value, B is the maximum y (POC), C is the x (cpd concentration) at the point of inflection and D is the slope factor) using a Levenburg-Marquardt non-linear regression algorithm.

Structures are written as SMILES.

In the case of `Cc1cc(N(C)c2nc(-c3ccccc3)cc3ncnn23)nc(N[C@@H](C)Cc2cccc(CN)c2)n1`, the IC50 is ≤ 20 µM.

For the molecule `CC(Cc1cccc(C(C)N)c1)Nc1nccc(N(C)c2nc(-c3ccccc3)cc3ncnn23)n1` (stereo not drawn) [N^2-{2-[3-(1-amino-ethyl)-phenyl]-1-methyl-ethyl}-N^4-methyl-N^4-(7-phenyl-[1,2,4]triazolo[1,5-c]pyrimidine-5-yl)-pyrimidine-2,4-diamine], the IC50 is ≤ 20 µM.

Turning to `CC(Cc1cccc(CO)c1)Nc1nccc(N(C)c2nc(-c3ccccc3)cc3nccn23)n1` (stereo not drawn) [[3-(2-{4-[Methyl-(7-phenyl-imidazo[1,2-c]pyrimidin-5-yl)-amino]-pyrimidin-2-ylamino}-propyl)-phenyl]-methanol], the IC50 is ≤ 20 µM.

In the case of `c1ccc(CCNc2nccc(Nc3nc(-c4ccccc4)cc4ncnn34)n2)cc1` [Example 4, N^2-phenethyl-N^4-(7-phenyl-[1,2,4]triazolo[1,5-c]pyrimidine-5-yl)-pyrimidine-2,4-diamine], the IC50 was ≤ 20 µM.

`CC(Cc1cccc(CN)c1)Nc1nccc(N(C)c2cc(-c3ccccc3)cc3ncnn23)n1` (stereo not drawn) [N^2-[2-(3-Aminomethyl-phenyl)-1-methyl-ethyl]-N^4-methyl-N^4-(7-phenyl-[1,2,4]triazolo[1,5-a]pyridin-5-yl)-pyrimidine-2,4-diamine]: the IC50 was ≤ 20 µM.

Regarding `CC(Cc1ccccc1)Nc1nccc(Nc2nc(-c3ccccc3)cc3ncnn23)n1` (stereo not drawn) [N^2-(1-methyl-2-phenyl-ethyl)-N^4-(7-phenyl-[1,2,4]triazolo[1,5-c]pyrimidine-5-yl)-pyrimidine-2,4-diamine], the IC50 was ≤ 20 µM.

As to `Cc1cc(N(C)c2nc(-c3ccccc3)cc3ncnn23)nc(N[C@@H](C)Cc2cccc([C@@H](C)N)c2)n1` [Example 35], the concentration for half-maximal inhibition (IC50) is ≤ 20 µM.

For `C[C@@H](Cc1ccccc1)Nc1nccc(N(C)c2nc(-c3ccccc3)cc3ncnn23)n1` [Example 10, N^4-methyl-N^2-(S)-(1-methyl-2-phenyl-ethyl)-N^4-(7-phenyl-[1,2,4]triazolo[1,5-c]pyrimidine-5-yl)-pyrimidine-2,4-diamine], the IC50 is ≤ 20 µM.

Turning to `C[C@@H](Cc1cccc(CO)c1)Nc1nccc(N(C)c2nc(-c3ccccc3)cc3ncnn23)n1` [(S)-[3-(2-{4-[methyl-(7-phenyl-[1,2,4]triazolo[1,5-c]pyrimidine-5-yl)-amino]-pyrimidin-2-ylamino}-propyl)-phenyl]-methanol], the IC50 is ≤ 20 µM.

On to `C[C@@H](Cc1cccc(S(=O)(=O)N(C)CCN(C)C)c1)Nc1nccc(N(C)c2nc(-c3ccccc3)cc3ncnn23)n1`, for which the IC50 was ≤ 20 µM.

Take `C[C@H](Nc1nccc(Nc2nc(-c3ccccc3)cc3ncnn23)n1)c1ccccc1` [Example 7, (S)—N^2-(1-phenyl-ethyl)-N^4-(7-phenyl-[1,2,4]triazolo[1,5-c]pyrimidine-5-yl)-pyrimidine-2,4-diamine]: the IC50 is ≤ 20 µM.

For the molecule `C[C@@H](Nc1nccc(Nc2nc(-c3ccccc3)cc3ncnn23)n1)c1ccccc1` [(R)-N^2-(1-Phenyl-ethyl)-N^4-(7-phenyl-[1,2,4]triazolo[1,5-c]pyrimidine-5-yl)-pyrimidine-2,4-diamine], the IC50 is ≤ 20 µM.

Regarding `CN(c1ccnc(NC2CCN(C(=O)OC(C)(C)C)CC2)n1)c1nc(-c2ccccc2)cc2ncnn12` [4-{4-[methyl-(7-phenyl-[1,2,4]triazolo[1,5-c]pyrimidin-5-yl)-amino]-pyrimidin-2-ylamino}-piperidine-1-carboxylic acid tert-butyl ester], the IC50 is ≤ 20 µM.

As for `CC(Cc1cccc(CN)c1)Nc1nccc(N(C)c2nc(-c3ccccc3)cc3ncnn23)n1` (stereo not drawn) [N^2-[2-(3-aminomethyl-phenyl)-1-methyl-ethyl]-N^4-methyl-N^4-(7phenyl-[1,2,4]triazolo[1,5-c]pyrimidin-5-yl)-pyrimidine-2,4-diamine], the IC50 is ≤ 20 µM.

For the molecule `CC(Cc1cccc(CO)c1)Nc1nccc(N(C)c2nc(-c3ccccc3)cc3ncnn23)n1` (stereo not drawn) [[3-(2-{4-[methyl-(7-phenyl-[1,2,4]triazolo[1,5-c]pyrimidine-5-yl)-amino]-pyrimidin-2-ylamino}-propyl)-phenyl]-methanol], the IC50 is ≤ 20 µM.

Take `CC(Cc1cccc(CN)c1)Nc1nccc(N(C)c2nc(-c3ccccc3)cc3nccn23)n1` (stereo not drawn) [N2-[2-(3-Aminomethyl-phenyl)-1-methyl-ethyl]-N4-methyl-N4-(7-phenyl-imidazo[1,2-c]pyrimidin-5-yl)-pyrimidine-2,4-diamine]: the IC50 is ≤ 20 µM.

As to `C[C@@H](Cc1cccc(CN)c1)Nc1nccc(N(C)c2nc(-c3ccccc3)cc3ncnn23)n1` [(S)-N^2-[2-(3-aminomethyl-phenyl)-1-methyl-ethyl]-N^4-methyl-N^4-(7-phenyl-[1,2,4]triazolo[1,5-c]pyrimidin-5-yl)-pyrimidine-2,4-diamine], the IC50 was ≤ 20 µM.

In the case of `C[C@@H](Cc1cccc(S(N)(=O)=O)c1)Nc1nccc(N(C)c2nc(-c3ccccc3)cc3ncnn23)n1`, the IC50 was ≤ 20 µM.
